According to ChEMBL document CHEMBL3596094, “Nucleoside Diphosphate Prodrugs: Nonsymmetric DiPPro-Nucleotides” (J Med Chem, 2015):

What was measured:
[1] = Half life in human CEM/0 cell extracts incubated at 37 degC by RP-18-HPLC method; type: ADME, CCRF-CEM
[2] = Cytotoxicity against human CEM/0 cells assessed as reduction in cell proliferation incubated for 4 to 5 days
[3] = test system: Human immunodeficiency virus 2; experiment: Antiviral activity against HIV2 ROD infected in human CEM/0 cells assessed as reduction in virus-induced giant cell formation incubated for 4 to 5 days; type: functional, organism-based; details: Human immunodeficiency virus 2, ISOLATE ROD, CCRF-CEM
[4] = Half life in pH 7.3 PBS incubated at 37 degC by RP-18-HPLC method; type: physicochemical
[5] = test system: Human immunodeficiency virus 1; experiment: Antiviral activity against HIV1 3B infected in human CEM/0 cells assessed as reduction in virus-induced giant cell formation incubated for 4 to 5 days; type: functional, organism-based; details: Human immunodeficiency virus 1, 3B, CCRF-CEM
[6] = test system: Human immunodeficiency virus 2; experiment: Antiviral activity against HIV2 ROD infected in human thymidine kinase deficient CEM/TK- cells assessed as reduction in virus-induced giant cell formation incubated for 4 to 5 days; type: functional, organism-based; details: Human immunodeficiency virus 2, ISOLATE ROD
[7] = Half life in presence of pig liver esterase assessed as half life for DiPPro-NDP by RP-18-HPLC method; type: ADME
[8] = Drug metabolism in human CEM/0 cell extracts assessed as increase in NDP/NMP ratio after 10 hrs by HILIC-HPLC method; type: ADME; details: ccrf-cem
[9] = Half life in pH 7.3 RPMI medium incubated at 37 degC by RP-18-HPLC method; type: physicochemical
[10] = Half life in presence of pig liver esterase assessed as half life for hydrolysis R1 intermediate by RP-18-HPLC method; type: ADME; details: isolated protein
[11] = Drug metabolism in human CEM/0 cell extracts assessed as increase in NDP/NMP ratio by HILIC-HPLC method; type: ADME, cell-based; details: ccrf-cem

Compound	half-life [1] [h]	CC50 ([2]; CEM/0 cells) [nM]	EC50 [3] [nM]	half-life [4] [h]	EC50 [5] [nM]	EC50 [6] [nM]	half-life [7] [s]	Drug metabolism [8]	half-life [9] [h]	t1/2 [10] [h]	Drug metabolism [11]	CC50 ([2]; ccrf-cem) [nM]
CCCCCCCC(=O)Oc1ccc(COP(=O)(OCc2ccc(OC(C)=O)cc2)OP(=O)(O)OC[C@@H]2C=C[C@H](n3cc(C)c(=O)[nH]c3=O)O2)cc1.N (some centres undefined)	0.04	33000	1050	36	330	6310						
CCCCCCCCCC(=O)Oc1ccc(COP(=O)(OCc2ccc(OC(C)=O)cc2)OP(=O)(O)OC[C@@H]2C=C[C@H](n3cc(C)c(=O)[nH]c3=O)O2)cc1.N (some centres undefined)	0.04	15000	1360	40	330	2320	8.4					
CCCCCCCCCCCC(=O)Oc1ccc(COP(=O)(OCc2ccc(OC(C)=O)cc2)OP(=O)(O)OC[C@@H]2C=C[C@H](n3cc(C)c(=O)[nH]c3=O)O2)cc1.N (some centres undefined)	0.16	26000	280	48	290	1770						
CC(=O)Oc1ccc(COP(=O)(OCc2ccc(OC(=O)c3ccc(C(F)(F)F)cc3)cc2)OP(=O)(O)OC[C@@H]2C=C[C@H](n3cc(C)c(=O)[nH]c3=O)O2)cc1.N (some centres undefined)	0.03	51000	1380	15	720	> 10000						
CC(=O)Oc1ccc(COP(=O)(OCc2ccc(OC(=O)c3ccc(C)cc3)cc2)OP(=O)(O)OC[C@@H]2C=C[C@H](n3cc(C)c(=O)[nH]c3=O)O2)cc1.N (some centres undefined)	0.04	11000	1470	58	290	10000						
CCCCCCCC(=O)Oc1ccc(COP(=O)(OCc2ccc(OC(=O)CCCC)cc2)OP(=O)(O)OC[C@@H]2C=C[C@H](n3cc(C)c(=O)[nH]c3=O)O2)cc1.N (some centres undefined)	0.71	66000	1470	36	330	6310						
CCCCCCCCCC(=O)Oc1ccc(COP(=O)(OCc2ccc(OC(=O)CCCC)cc2)OP(=O)(O)OC[C@@H]2C=C[C@H](n3cc(C)c(=O)[nH]c3=O)O2)cc1.N (some centres undefined)	1.05	20000	1170	40	360	830	15.6					
CCCCCCCCCCCC(=O)Oc1ccc(COP(=O)(OCc2ccc(OC(=O)CCCC)cc2)OP(=O)(O)OC[C@@H]2C=C[C@H](n3cc(C)c(=O)[nH]c3=O)O2)cc1.N (some centres undefined)	1.91	30000	280	52	100	130						
CCCCC(=O)Oc1ccc(COP(=O)(OCc2ccc(OC(=O)c3ccc(C(F)(F)F)cc3)cc2)OP(=O)(O)OC[C@@H]2C=C[C@H](n3cc(C)c(=O)[nH]c3=O)O2)cc1.N (some centres undefined)	0.88	37000	720	15	400	> 10000						
CCCCC(=O)Oc1ccc(COP(=O)(OCc2ccc(OC(=O)c3ccc(C)cc3)cc2)OP(=O)(O)OC[C@@H]2C=C[C@H](n3cc(C)c(=O)[nH]c3=O)O2)cc1.N (some centres undefined)	0.96	14000	1450	50	300	10000						
CCCCCCCC(=O)Oc1ccc(COP(=O)(OCc2ccc(OC(C)=O)cc2)OP(=O)(O)OC[C@H]2O[C@@H](n3cc(C)c(=O)[nH]c3=O)C[C@@H]2N=[N+]=[N-])cc1.N (some centres undefined)	0.02	29000	160	33	42	> 10000	12.6					
CCCCCCCCCC(=O)Oc1ccc(COP(=O)(OCc2ccc(OC(C)=O)cc2)OP(=O)(O)OC[C@H]2O[C@@H](n3cc(C)c(=O)[nH]c3=O)C[C@@H]2N=[N+]=[N-])cc1.N (some centres undefined)	0.04	20000	140	35	16	> 10000	27	metabolite_detected	19			
CCCCCCCCCCCC(=O)Oc1ccc(COP(=O)(OCc2ccc(OC(C)=O)cc2)OP(=O)(O)OC[C@H]2O[C@@H](n3cc(C)c(=O)[nH]c3=O)C[C@@H]2N=[N+]=[N-])cc1.N (some centres undefined)	0.11	18000	80	32	42	10000	11.4			0.467		
CC(=O)Oc1ccc(COP(=O)(OCc2ccc(OC(=O)c3ccc(C(F)(F)F)cc3)cc2)OP(=O)(O)OC[C@H]2O[C@@H](n3cc(C)c(=O)[nH]c3=O)C[C@@H]2N=[N+]=[N-])cc1.N (some centres undefined)	0.04	100000	60	13	12	> 10000						
CCCCCCCC(=O)Oc1ccc(COP(=O)(OCc2ccc(OC(=O)CCCC)cc2)OP(=O)(O)OC[C@H]2O[C@@H](n3cc(C)c(=O)[nH]c3=O)C[C@@H]2N=[N+]=[N-])cc1.N (some centres undefined)	0.83	73000	70	46	36	> 10000	16.2			0.25		
CCCCCCCCCC(=O)Oc1ccc(COP(=O)(OCc2ccc(OC(=O)CCCC)cc2)OP(=O)(O)OC[C@H]2O[C@@H](n3cc(C)c(=O)[nH]c3=O)C[C@@H]2N=[N+]=[N-])cc1.N (some centres undefined)	1	41000	290	50	34	10000	16.2		77	0.317		

Compound	half-life [1] [h]	CC50 ([2]; CEM/0 cells) [nM]	EC50 [3] [nM]	half-life [4] [h]	EC50 [5] [nM]	EC50 [6] [nM]	half-life [7] [s]	Drug metabolism [8]	half-life [9] [h]	t1/2 [10] [h]	Drug metabolism [11]	CC50 ([2]; ccrf-cem) [nM]
CCCCCCCCCCCC(=O)Oc1ccc(COP(=O)(OCc2ccc(OC(=O)CCCC)cc2)OP(=O)(O)OC[C@H]2O[C@@H](n3cc(C)c(=O)[nH]c3=O)C[C@@H]2N=[N+]=[N-])cc1.N (some centres undefined)	1.65	36000	60	63	13	8160	72			0.633		
CCCCC(=O)Oc1ccc(COP(=O)(OCc2ccc(OC(=O)c3ccc(C(F)(F)F)cc3)cc2)OP(=O)(O)OC[C@H]2O[C@@H](n3cc(C)c(=O)[nH]c3=O)C[C@@H]2N=[N+]=[N-])cc1.N (some centres undefined)	0.83	58000	60	19	36	> 10000						
CCCCC(=O)Oc1ccc(COP(=O)(OCc2ccc(OC(=O)CCCC)cc2)OP(=O)(O)OC[C@H]2O[C@@H](n3cc(C)c(=O)[nH]c3=O)C[C@@H]2N=[N+]=[N-])cc1.N		60000	54		11	> 10000					metabolite_detected	
CCCCCCC(=O)Oc1ccc(COP(=O)(OCc2ccc(OC(=O)CCCCCC)cc2)OP(=O)(O)OC[C@H]2O[C@@H](n3cc(C)c(=O)[nH]c3=O)C[C@@H]2N=[N+]=[N-])cc1.N		47000	58		16	> 10000					metabolite_detected	
CCCCCCCCCC(=O)Oc1ccc(COP(=O)(OCc2ccc(OC(=O)CCCCCCCCC)cc2)OP(=O)(O)OC[C@H]2O[C@@H](n3cc(C)c(=O)[nH]c3=O)C[C@@H]2N=[N+]=[N-])cc1		38000	230		26	1300						
CCCCCCCC(=O)Oc1ccc(COP(=O)(O)OP(=O)(O)OC[C@@H]2C=C[C@H](n3cc(C)c(=O)[nH]c3=O)O2)cc1	1.65											
CCCCCCCCCC(=O)Oc1ccc(COP(=O)(O)OP(=O)(O)OC[C@@H]2C=C[C@H](n3cc(C)c(=O)[nH]c3=O)O2)cc1	0.833											
CCCCCCCCCCCC(=O)Oc1ccc(COP(=O)(O)OP(=O)(O)OC[C@@H]2C=C[C@H](n3cc(C)c(=O)[nH]c3=O)O2)cc1	1.15											
Cc1cn([C@H]2C=C[C@@H](COP(=O)(O)OP(=O)(O)OCc3ccc(OC(=O)c4ccc(C(F)(F)F)cc4)cc3)O2)c(=O)[nH]c1=O	11.5											
Cc1ccc(C(=O)Oc2ccc(COP(=O)(O)OP(=O)(O)OC[C@@H]3C=C[C@H](n4cc(C)c(=O)[nH]c4=O)O3)cc2)cc1	14.5											
CCCCCCCC(=O)Oc1ccc(COP(=O)(O)OP(=O)(O)OC[C@H]2O[C@@H](n3cc(C)c(=O)[nH]c3=O)C[C@@H]2N=[N+]=[N-])cc1	1.65											
CCCCCCCCCC(=O)Oc1ccc(COP(=O)(O)OP(=O)(O)OC[C@H]2O[C@@H](n3cc(C)c(=O)[nH]c3=O)C[C@@H]2N=[N+]=[N-])cc1	0.833											
CCCCCCCCCCCC(=O)Oc1ccc(COP(=O)(O)OP(=O)(O)OC[C@H]2O[C@@H](n3cc(C)c(=O)[nH]c3=O)C[C@@H]2N=[N+]=[N-])cc1	1.05											
Cc1cn([C@H]2C[C@H](N=[N+]=[N-])[C@@H](COP(=O)(O)OP(=O)(O)OCc3ccc(OC(=O)c4ccc(C(F)(F)F)cc4)cc3)O2)c(=O)[nH]c1=O	3.83											
Cc1cn([C@H]2C=C[C@@H](CO)O2)c(=O)[nH]c1=O [STAVUDINE]			2230		520	150000						79000
Cc1cn([C@H]2C[C@H](N=[N+]=[N-])[C@@H](CO)O2)c(=O)[nH]c1=O [ZIDOVUDINE]		> 250000	490		44	> 250000						
